Results reported in patent publication US10413557B2, “Prodrugs of 17.BETA.-HSD1-inhibitors” (FORENDO PHARMA LTD, priority 2014, dated 2019).

Columns and labels:
[1] = biological target: T1, recombinant human 17β-HSD1 (Homo sapiens, UniProt P14061); test: Inhibition of recombinant human 17β-HSD1 (conversion of 3H-estrone to estradiol, HPLC); format: biochemical; conditions: inhibitor 1 μM, 30 nM estrone, 1 mM NADPH, 30 min RT; for inhibition at 1 µM: read-out: 17β-HDS1 Inhibition % at 1 μM
T1 construct: made in house; host or cells: Sd9 (Sf9) insect cells, baculovirus (Bac to Bac Expression System)
T1 sequence (P14061 1-328): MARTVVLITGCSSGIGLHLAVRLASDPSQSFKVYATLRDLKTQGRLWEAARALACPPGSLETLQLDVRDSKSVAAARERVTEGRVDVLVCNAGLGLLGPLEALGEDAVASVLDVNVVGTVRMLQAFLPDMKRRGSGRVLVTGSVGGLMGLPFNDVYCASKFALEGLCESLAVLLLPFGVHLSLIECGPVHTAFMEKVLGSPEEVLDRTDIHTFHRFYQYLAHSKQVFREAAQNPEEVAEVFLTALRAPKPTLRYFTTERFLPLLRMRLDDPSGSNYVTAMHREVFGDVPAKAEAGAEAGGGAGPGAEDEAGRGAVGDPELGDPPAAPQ
Protocol: 17β-HSD1 production and isolation: Recombinant baculovirus was generated by the “Bac to Bac Expression System” (Invitrogen). Recombinant bacmid was transfected to Sd9 insect cells using “Cellfectin Reagent” (Invitrogen). 60 h later cells were harvested; the microsomal fraction was isolated as described by Puranen, T. J., Poutanen, M. H., Peltoketo, H. E., Vihko, P. T. and Vihko, R. K. (1994) Site-directed mutagenesis of the putative active site of human 17 β-hydroxysteroid dehydrogenase type 1. Biochem. J. 304: 289-293. Aliquots were stored frozen until determination of enzymatic activity.
Assay—Inhibition of recombinant human 17β-HSD1: Protein homogenate (0.1 μg/ml) was incubated in 20 mM KH2PO4 pH 7.4 with 30 nM estrone (including 800 000 cpm/ml of ^3H-estrone) and 1 mM NADPH for 30 min at RT, in the presence of the potential inhibitor at concentrations 1 μM or 0.1 μM. Inhibitor stock solutions were prepared in DMSO. Final concentration of DMSO was adjusted to 1% in all samples. The enzyme reaction was stopped by addition of 10% trichloroacetic acid (final concentration). Samples were centrifuged in a microtiter plate at 4000 rpm for 10 min. Supernatants were applied to reverse phase HPLC on a Waters Symmetry C18 column, equipped with a Waters Sentry Guard column. Isocratic HPLC runs were performed at RT at a flow rate of 1 ml/min in acetonitrile:water 48:52 as running solvent. Radioactivity was monitored in the eluate by a Packard Flow Scintillation Analyzer. Total radioactivity for estrone and estradiol were determined in each sample and percent conversion of estrone to estradiol was calculated according to the following formula:
(§1) Percent inhibition was calculated flowingly: % inhibition=100−% conversion

[2] = biological target: T2, recombinant human 17β-HSD2 (Homo sapiens, UniProt P37059); test: Inhibition of recombinant human 17β-HSD2 (conversion of 3H-estradiol to estrone, HPLC); format: biochemical; conditions: inhibitor 1 μM; 50 nM estradiol, 1 mM NADH, 30 min RT
T2 construct: made in house; host or cells: Sd9 (Sf9) insect cells, baculovirus (Bac to Bac Expression System)
T2 sequence (P37059 1-387): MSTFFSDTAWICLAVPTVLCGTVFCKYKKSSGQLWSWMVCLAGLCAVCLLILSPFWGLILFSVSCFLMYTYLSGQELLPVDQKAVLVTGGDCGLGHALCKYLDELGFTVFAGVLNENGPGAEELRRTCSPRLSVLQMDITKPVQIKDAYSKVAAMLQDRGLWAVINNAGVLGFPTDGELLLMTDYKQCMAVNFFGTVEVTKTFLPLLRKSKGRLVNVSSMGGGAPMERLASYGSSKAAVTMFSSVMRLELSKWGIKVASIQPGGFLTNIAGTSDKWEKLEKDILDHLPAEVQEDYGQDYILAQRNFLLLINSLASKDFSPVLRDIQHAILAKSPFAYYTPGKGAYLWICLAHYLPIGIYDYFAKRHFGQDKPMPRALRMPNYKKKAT
Protocol: 17β-HSD2 production and isolation: Similarly to 17β-HSD1 the Recombinant baculovirus was generated by the “Bac to Bac Expression System” (Invitrogen). Recombinant bacmid was transfected to Sd9 insect cells using “Cellfectin Reagent” (Invitrogen). 60 h later cells were harvested and supernatant were fractionated by the following protocol: • cells were dissolved into 40 ml of A-buffer (40 mM TRIS, pH8.0, 20% glycerol, 20 μM NAD, 0.4 mM PMSF, 150 mM NaCl, 0.5% dodecyl-β-maltoside+protease inhibitor cocktail) • cells were sonicated • lysate was incubated on ice for 15 min • lysate was centrifuged 5000 rpm 15 min, +4° C. • centrifugation of the supernatant 180 000 g 30 min, +4° C. • pellet was dissolved into 8 ml of A-buffer • not resuspended material was removed by centrifugation 5000 rpm 15 min, +4° C. • the clear supernatant was divided into 100 μl aliquots and were stored frozen until determination of enzymatic activity.
The amount of 17β-HSD2 was analysed by immunoblotting and total protein concentration of each extract batch was determined.
Assay—Inhibition of recombinant human 17β-HSD2: Protein homogenate (4 μg/ml) was incubated in 20 mM KH2PO4 pH 8.5 with 50 nM estradiol (including 800 000 cpm/ml of ^3H-estradiol) and 1 mM […] for 30 min at RT, in the presence of the potential inhibitor at concentrations 1 μM or 0.1 μM. Inhibitor stock solutions were prepared in DMSO. Final concentration of DMSO was adjusted to 1% in all samples. The enzyme reaction was stopped by addition of 10% trichloroacetic acid (final concentration). Samples were centrifuged in a microtiter plate at 4000 rpm for 10 min. Supernatants were applied to reverse phase HPLC on a Waters Symmetry C18 column, equipped with a Waters Sentry Guard column. Isocratic HPLC runs were performed at RT at a flow rate ofl ml/min in acetonitrile:water 48:52 as running solvent. Radioactivity was monitored in the eluate by a Packard Flow Scintillation Analyzer. Total radioactivity for estrone and estradiol were determined in each sample and percent conversion of estradiol to estrone was calculated according to the following formula:
as §1

[3] = Metabolic stability assay; format: in vitro ADME; conditions: human liver homogenate or microsomes
Protocol: The in vitro metabolic stability of the parent compounds was determined for exemplified compounds using human liver microsome and homogenate incubations. The incubation time points used with or without appropriate cofactors were 0 min and 60 min. Samples were collected at both time points and substrates were detected using LC/PDA/TOF-MS. In vitro metabolic stability (% remaining after 60 min in human liver homogenate or microsomes) of the compounds were calculated and the results are summarized in Table 4.

Compound | 17β-HDS1 Inhibition % at 1 μM [1] [%] | 17β-HSD2 Inhibition % at 1 μM [2] [%] | In vitro metabolic stability, % remaining after 60 min [3] [%] | inhibition at 1 µM [1] [%] | inhibition at 1 µM [2] [%]
3-{(13S,15R)-2-Fluoro-3-hydroxy-17-[(E)-methoxyimino]-13-methyl-7,8,9,11,12,13,14,15,16,17-decahydro-6H-cyclopenta[a]phenanthren-15-yl}-N-(5-methylthiazol-2-yl)propanamide [VIV-15] | 94 | 5 | 92 | – | –
3-{(13S,15R)-4-Fluoro-3-hydroxy-17-[(E)-methoxyimino]-13-methyl-7,8,9,11,12,13,14,15,16,17-decahydro-6H-cyclopenta[a]phenanthren-15-yl}-N-(5-methylthiazol-2-yl)propanamide [VIV-16] | 90 | 7 | 68 | – | –
Cc1cnc(NC(=O)CC[C@@H]2CC(=O)[C@@]3(C)CCC4c5ccc(O)cc5CCC4C23)s1 (some centres unmarked) [VII, reference compound] | – | – | 13 | – | –
CO/N=C1\C[C@@H](CCC(=O)Nc2ncc(C)s2)C2C3CCc4cc(O)c(Br)cc4C3CC[C@]12C (stereo partly drawn) [VIV-9, 3-{(13S,15R)-2-Bromo-3-hydroxy-17-[(E)-methoxyimino]-13-methyl-7,8,9,11,12,13,14,15,16,17-decahydro-6H-cyclopenta[a]phenanthren-15-yl}-N-(5-methylthiazol-2-yl)-propanamide] | – | – | 34 | 81 | 1
CO/N=C1\C[C@@H](CCC(=O)Nc2ncc(C)s2)C2C3CCc4cc(O)c(Cl)cc4C3CC[C@]12C (stereo partly drawn) [VIV-12, 3-{(13S,15R)-2-Chloro-3-hydroxy-17-[(E)-methoxyimino]-13-methyl-7,8,9,11,12,13,14,15,16,17-decahydro-6H-cyclopenta[a]phenanthren-15-yl}-N-(5-methylthiazol-2-yl)propanamide] | – | – | 94 | 95 | 3
Cc1cnc(NC(=O)CC[C@@H]2C/C(=N\O)[C@@]3(C)CCC4c5ccc(O)c([N+](=O)[O-])c5CCC4C23)s1 (stereo partly drawn) [VIV-24, 3-{(13S,15R)-3-Hydroxy-4-nitro-17-[(E)-hydroxyimino]-13-methyl-7,8,9,11,12,13,14,15,16,17-decahydro-6H-cyclopenta[a]phenanthren-15-yl}-N-(5-methylthiazol-2-yl)propanamide] | – | – | – | 96 | 33
Cc1cnc(NC(=O)CC[C@@H]2C/C(=N\O)[C@@]3(C)CCC4c5cc(Br)c(O)cc5CCC4C23)s1 (stereo partly drawn) [VIV-25, 3-{(13S,15R)-2-Bromo-3-hydroxy-17-[(E)-hydroxyimino]-13-methyl-7,8,9,11,12,13,14,15,16,17-decahydro-6H-cyclopenta[a]phenanthren-15-yl}-N-(5-methylthiazol-2-yl)propanamide] | – | – | – | 77 | 25
Cc1cnc(NC(=O)CC[C@@H]2C/C(=N\O)[C@@]3(C)CCC4c5ccc(O)c(Br)c5CCC4C23)s1 (stereo partly drawn) [VIV-26, 3-{(13S,15R)-4-Bromo-3-hydroxy-17-[(E)-hydroxyimino]-13-methyl-7,8,9,11,12,13,14,15,16,17-decahydro-6H-cyclopenta[a]phenanthren-15-yl}-N-(5-methylthiazol-2-yl)propanamide] | – | – | – | 89 | 15
Cc1cnc(NC(=O)CC[C@@H]2C/C(=N\O)[C@@]3(C)CCC4c5cc(Br)c(O)c(Br)c5CCC4C23)s1 (stereo partly drawn) [VIV-27, 3-{(13S,15R)-2,4-Dibromo-3-hydroxy-17-[(E)-hydroxyimino]-13-methyl-7,8,9,11,12,13,14,15,16,17-decahydro-6H-cyclopenta[a]phenanthren-15-yl}-N-(5-methylthiazol-2-yl)propanamide] | – | – | – | 98 | 28
Cc1cnc(NC(=O)CC[C@@H]2C/C(=N\O)[C@@]3(C)CCC4c5cc(Cl)c(O)cc5CCC4C23)s1 (stereo partly drawn) [VIV-28, 3-{(13S,15R)-2-Chloro-3-hydroxy-17-[(E)-hydroxyimino]-13-methyl-7,8,9,11,12,13,14,15,16,17-decahydro-6H-cyclopenta[a]phenanthren-15-yl}-N-(5-methylthiazol-2-yl)propanamide] | – | – | – | 98 | 21
Cc1cnc(NC(=O)CC[C@@H]2C/C(=N\O)[C@@]3(C)CCC4c5ccc(O)c(Cl)c5CCC4C23)s1 (stereo partly drawn) [VIV-29, 3-{(13S,15R)-4-Chloro-3-hydroxy-17-[(E)-hydroxyimino]-13-methyl-7,8,9,11,12,13,14,15,16,17-decahydro-6H-cyclopenta[a]phenanthren-15-yl}-N-(5-methylthiazol-2-yl)propanamide] | – | – | – | 98 | 21
Cc1cnc(NC(=O)CC[C@@H]2C/C(=N\O)[C@@]3(C)CCC4c5cc(Cl)c(O)c(Cl)c5CCC4C23)s1 (stereo partly drawn) [VIV-30, 3-{(13S,15R)-2,4-Dichloro-3-hydroxy-17-[(E)-hydroxyimino]-13-methyl-7,8,9,11,12,13,14,15,16,17-decahydro-6H-cyclopenta[a]phenanthren-15-yl}-N-(5-methylthiazol-2-yl)propanamide] | – | – | – | 87 | 23
Cc1cnc(NC(=O)CC[C@@H]2C/C(=N\O)[C@@]3(C)CCC4c5cc(F)c(O)cc5CCC4C23)s1 (stereo partly drawn) [VIV-31, 3-{(13S,15R)-2-Fluoro-3-hydroxy-17-[(E)-hydroxyimino]-13-methyl-7,8,9,11,12,13,14,15,16,17-decahydro-6H-cyclopenta[a]phenanthren-15-yl}-N-(5-methylthiazol-2-yl)propanamide] | – | – | – | 97 | 14
